Like-named read-outs stand apart in the source and are kept apart here.
Legend:
PI3K beta = biological target: T1, PI3K beta (Mus musculus, UniProt Q8BTI9); assay: LPA induced AktS473 phosphorylation in 3T3 fibroblasts (PI3Kβ selectivity); type: cell-based; conditions: read-out: Cellular IC50 PI3K beta (LPA induced pAKT in 3T3 fibroblasts)
T1 construct: 3T3 cells were treated with desired concentrations of the test compound for 15 min; endogenous in cells; host or cells: 3T3 fibroblasts

[1] = test system: anti-human CD3/CD28 co-stimulated primary T-cells; assay: Cytokine assay in anti-human CD3 and CD28 co-stimulated primary T-cells (ELISA); type: cell-based; conditions: T-cell, anti-human CD3-CD28 induced, 24 h, eight independent experiments
Protocol: The objective of this study was to assess the inhibitory potential of Compound A1 on cytokines produced by anti-human CD3/CD28 co-stimulated primary T-cells.
• Plates were coated with 50 μl of anti-human CD3 at a concentration of 100 ng/ml either overnight at 4° C. or for 2 h at 37° C. After incubation, plates were washed twice with sterile PBS to remove unbound antibody. • Isolated human T-cells were re-suspended to 0.625×10^6 cells per ml in 1.5 ml tubes and 1 μl of drug dilution (1000×) was added. A DMSO blank and un-induced blank were maintained. • Cells were incubated with compound at room temperature for 30 min and then added to anti-human CD3 coated wells of a 96-well plate, 240 μl each. Anti-human CD28 was added immediately, 10 μl (25×) per well. • Plate was incubated at 37° C., 5% CO2 for 24 h. • Plates were centrifuged at 4000 rpm at room temperature, supernatant was collected and stored at −20° C. • Cytokines were determined using a commercial ELISA kit with absorbance read at 450 and 570 nm.

TNF-α = assay: Lipopolysaccharide induced TNF-α production; type: in vivo, rat
Protocol: Fasted female wistar rats were randomized into different groups depending on their body weights. Test compound (Compound A1) was prepared as a suspension in a vehicle consisting of 0.5% methylcellulose. The compound or vehicle was administered by oral gavage in a volume of 10 mL/kg. LPS solution was administered intraperitoneally one hour after compound administration at a dose of 0.3 mg/kg. Blood was collected in serum separator tubes via cardiac puncture ninety minutes after LPS injection. Serum was separated and stored at −20° C. and will be analysed for TNFα by ELISA.

PI3Kδ = PI3Kδ (Homo sapiens, UniProt O00329); assay: Fluorescent (HTRF) determination of PI3 kinase enzyme activity, delta isoform; type: biochemical; set-up: purchased Millipore (assay kit); conditions: Table 1, HTRF; read-out: IC50 (nM) Pi3Kδ
Source text: Phosphoinositide 3 kinases (PI3K) belong to a class of lipid kinases that play a critical role in the regulation of several key cellular processes. The PI3K are capable of phosphorylating the 3-hydroxy position of phosphoinositols thereby generating second messengers involved in downstream signalling events. The homogenous time resolved fluorescence (HTRF) assay allows detection of 3,4,5-triphosphate (PIP3) formed as a result of phosphorylation of phosphotidylinositol 4,5-biphosphate (PIP2) by PI3K isoforms such as α, β, γ or δ.
PI3K isoform activity for α, β, γ or δ was determined using a PI3K human HTRF™ Assay Kit (Millipore, Billerica, Mass.) with modifications. All incubations were carried out at room temperature. Briefly, 0.5 μl of 40× inhibitor (in 100% DMSO) or 100% DMSO were added to each well of a 384-well white plate (Greiner Bio-One, Monroe, N.C.) containing 14.5 μl 1× reaction buffer /PIP2 (10 mM MgCl2, 5 mM DTT, 1.38 μM PIP2) mix with or without enzyme, followed by 5 μl/well of 400 μM ATP and incubated for an additional 30 minutes. Reaction was terminated by adding 5 μl/well stop solution (Millipore, Billerica, Mass.). […] HRTF ratio was measured on a microplate reader (BMG Labtech., Germany) at an excitation wavelength of 337 nm and emission wavelengths of 665 and 615 nm with an integration time of 400 msec counting delay of 50 msec.

Pi3K γ = Pi3K γ (Homo sapiens, UniProt P48736); assay: fMLP induced CD63 expression in basophils from human whole blood; type: cell-based; conditions: n=10, read-out: IC50 for fMLP (PI3K γ), CD63 positive basophils
Protocol: PI3K δ and γ signalling in basophils manifested by an alteration of anti-FcεR1 or fMLP induced CD63 expression is a useful pharmacodynamic marker determined using the Flow2CAST® kit (Buhlmann Laboratories, Switzerland). Briefly, it involves the following steps: • Mix the anti-coagulated blood sample by inverting the venipuncture tube several times; • Prepare fresh and pyrogen-free 3.5 ml polypropylene or polystyrene tubes suitable for Flow Cytometry measurements; • Add 49 μl of patient's whole blood to each tube; • Add 1 μl of 10% DMSO (background) or compound (10% DMSO) to the assigned tubes and mix gently. Incubate at room temperature for 15 minutes; • Pipet 50 μl of the Stimulation buffer (background) or anti-FcεRI Ab or or fMLP to each tube; • Add 100 μl of Stimulation Buffer to each tube; • Mix gently. Add 20 μl Staining Reagent (1:1 mix of FITC-CD63 and PE-CCR3) to each tube; • Mix gently, cover the tubes and incubate for 15 minutes at 37° C. in a water bath. […]
Percent CD63 positive cells within the gated basophil population were determined in different treatment groups and normalized to vehicle control.

T1 sequence (Q8BTI9 whole entry): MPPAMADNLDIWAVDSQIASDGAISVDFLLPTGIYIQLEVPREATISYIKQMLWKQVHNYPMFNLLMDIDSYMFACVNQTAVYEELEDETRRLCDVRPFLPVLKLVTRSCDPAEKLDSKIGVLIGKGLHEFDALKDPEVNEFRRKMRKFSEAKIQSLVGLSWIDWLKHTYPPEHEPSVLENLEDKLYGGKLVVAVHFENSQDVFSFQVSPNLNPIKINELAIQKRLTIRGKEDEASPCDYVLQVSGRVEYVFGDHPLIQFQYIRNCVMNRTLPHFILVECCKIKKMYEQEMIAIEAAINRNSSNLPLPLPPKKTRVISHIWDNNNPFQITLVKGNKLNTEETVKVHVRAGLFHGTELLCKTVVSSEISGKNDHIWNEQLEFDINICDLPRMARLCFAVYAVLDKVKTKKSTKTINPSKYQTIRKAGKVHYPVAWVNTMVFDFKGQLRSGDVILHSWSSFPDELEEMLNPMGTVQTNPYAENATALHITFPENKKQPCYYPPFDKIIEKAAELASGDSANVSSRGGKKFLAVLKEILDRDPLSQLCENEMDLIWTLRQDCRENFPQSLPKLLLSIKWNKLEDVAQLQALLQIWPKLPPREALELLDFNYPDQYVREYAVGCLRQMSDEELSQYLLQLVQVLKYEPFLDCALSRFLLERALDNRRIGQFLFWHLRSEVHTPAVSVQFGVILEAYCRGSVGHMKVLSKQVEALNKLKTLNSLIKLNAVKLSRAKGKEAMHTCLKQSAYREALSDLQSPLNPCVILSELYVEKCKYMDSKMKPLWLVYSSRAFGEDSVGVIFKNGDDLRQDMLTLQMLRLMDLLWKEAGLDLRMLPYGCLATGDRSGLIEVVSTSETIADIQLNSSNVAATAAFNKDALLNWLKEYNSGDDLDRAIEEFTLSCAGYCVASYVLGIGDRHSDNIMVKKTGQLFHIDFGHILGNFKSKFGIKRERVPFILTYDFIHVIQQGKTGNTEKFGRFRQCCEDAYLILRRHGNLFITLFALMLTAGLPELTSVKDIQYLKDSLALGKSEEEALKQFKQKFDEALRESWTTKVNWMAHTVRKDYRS
T1 sequence (P26450 whole entry partner): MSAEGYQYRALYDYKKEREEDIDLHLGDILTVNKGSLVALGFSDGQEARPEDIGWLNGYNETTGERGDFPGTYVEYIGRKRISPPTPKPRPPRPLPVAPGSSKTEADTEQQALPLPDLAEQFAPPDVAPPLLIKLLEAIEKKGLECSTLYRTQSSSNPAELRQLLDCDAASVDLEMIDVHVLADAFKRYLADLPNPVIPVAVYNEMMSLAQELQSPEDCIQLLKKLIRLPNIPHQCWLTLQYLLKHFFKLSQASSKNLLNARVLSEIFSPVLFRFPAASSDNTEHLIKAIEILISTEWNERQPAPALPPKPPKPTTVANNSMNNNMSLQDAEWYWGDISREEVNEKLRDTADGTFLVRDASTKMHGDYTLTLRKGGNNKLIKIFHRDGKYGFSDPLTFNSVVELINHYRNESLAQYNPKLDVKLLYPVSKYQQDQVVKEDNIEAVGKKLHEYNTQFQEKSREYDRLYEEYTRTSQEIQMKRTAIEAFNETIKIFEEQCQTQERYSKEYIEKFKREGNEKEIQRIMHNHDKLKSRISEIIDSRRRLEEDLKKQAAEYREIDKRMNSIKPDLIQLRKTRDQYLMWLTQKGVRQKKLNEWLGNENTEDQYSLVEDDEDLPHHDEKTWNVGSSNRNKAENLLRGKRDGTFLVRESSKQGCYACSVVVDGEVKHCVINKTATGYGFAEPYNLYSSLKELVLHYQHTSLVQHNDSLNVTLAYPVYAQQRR
Pi3K γ, sequence (P48736 whole entry): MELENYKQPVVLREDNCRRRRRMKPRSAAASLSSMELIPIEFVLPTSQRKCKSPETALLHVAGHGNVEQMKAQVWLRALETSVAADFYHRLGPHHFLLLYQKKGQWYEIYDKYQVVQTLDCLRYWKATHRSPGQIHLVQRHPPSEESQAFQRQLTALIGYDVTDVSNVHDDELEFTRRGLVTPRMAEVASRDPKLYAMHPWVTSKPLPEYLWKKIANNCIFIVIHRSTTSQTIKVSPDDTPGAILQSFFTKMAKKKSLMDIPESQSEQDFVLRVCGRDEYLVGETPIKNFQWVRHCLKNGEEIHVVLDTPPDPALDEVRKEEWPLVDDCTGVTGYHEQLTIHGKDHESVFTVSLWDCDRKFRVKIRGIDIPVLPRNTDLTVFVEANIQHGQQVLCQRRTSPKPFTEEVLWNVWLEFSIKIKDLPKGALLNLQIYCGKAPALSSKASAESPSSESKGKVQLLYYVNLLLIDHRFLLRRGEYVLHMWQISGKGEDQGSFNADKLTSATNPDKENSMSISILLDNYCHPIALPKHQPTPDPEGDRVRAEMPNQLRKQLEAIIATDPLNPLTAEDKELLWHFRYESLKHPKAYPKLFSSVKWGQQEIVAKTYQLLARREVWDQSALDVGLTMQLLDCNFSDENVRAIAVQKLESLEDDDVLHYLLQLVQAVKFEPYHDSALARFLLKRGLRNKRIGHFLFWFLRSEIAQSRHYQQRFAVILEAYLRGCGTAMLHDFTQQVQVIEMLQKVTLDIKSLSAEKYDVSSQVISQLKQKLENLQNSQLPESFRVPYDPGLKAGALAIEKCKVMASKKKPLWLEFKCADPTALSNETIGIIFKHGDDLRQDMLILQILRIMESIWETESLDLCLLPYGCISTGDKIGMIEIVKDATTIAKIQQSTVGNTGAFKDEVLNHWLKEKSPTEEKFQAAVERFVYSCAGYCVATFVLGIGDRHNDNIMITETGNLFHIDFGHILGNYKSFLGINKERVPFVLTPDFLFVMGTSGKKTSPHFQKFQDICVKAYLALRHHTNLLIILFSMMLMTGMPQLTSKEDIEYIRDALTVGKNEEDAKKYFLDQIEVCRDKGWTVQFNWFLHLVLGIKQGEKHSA
PI3Kδ, sequence (O00329 whole entry, canonical isoform): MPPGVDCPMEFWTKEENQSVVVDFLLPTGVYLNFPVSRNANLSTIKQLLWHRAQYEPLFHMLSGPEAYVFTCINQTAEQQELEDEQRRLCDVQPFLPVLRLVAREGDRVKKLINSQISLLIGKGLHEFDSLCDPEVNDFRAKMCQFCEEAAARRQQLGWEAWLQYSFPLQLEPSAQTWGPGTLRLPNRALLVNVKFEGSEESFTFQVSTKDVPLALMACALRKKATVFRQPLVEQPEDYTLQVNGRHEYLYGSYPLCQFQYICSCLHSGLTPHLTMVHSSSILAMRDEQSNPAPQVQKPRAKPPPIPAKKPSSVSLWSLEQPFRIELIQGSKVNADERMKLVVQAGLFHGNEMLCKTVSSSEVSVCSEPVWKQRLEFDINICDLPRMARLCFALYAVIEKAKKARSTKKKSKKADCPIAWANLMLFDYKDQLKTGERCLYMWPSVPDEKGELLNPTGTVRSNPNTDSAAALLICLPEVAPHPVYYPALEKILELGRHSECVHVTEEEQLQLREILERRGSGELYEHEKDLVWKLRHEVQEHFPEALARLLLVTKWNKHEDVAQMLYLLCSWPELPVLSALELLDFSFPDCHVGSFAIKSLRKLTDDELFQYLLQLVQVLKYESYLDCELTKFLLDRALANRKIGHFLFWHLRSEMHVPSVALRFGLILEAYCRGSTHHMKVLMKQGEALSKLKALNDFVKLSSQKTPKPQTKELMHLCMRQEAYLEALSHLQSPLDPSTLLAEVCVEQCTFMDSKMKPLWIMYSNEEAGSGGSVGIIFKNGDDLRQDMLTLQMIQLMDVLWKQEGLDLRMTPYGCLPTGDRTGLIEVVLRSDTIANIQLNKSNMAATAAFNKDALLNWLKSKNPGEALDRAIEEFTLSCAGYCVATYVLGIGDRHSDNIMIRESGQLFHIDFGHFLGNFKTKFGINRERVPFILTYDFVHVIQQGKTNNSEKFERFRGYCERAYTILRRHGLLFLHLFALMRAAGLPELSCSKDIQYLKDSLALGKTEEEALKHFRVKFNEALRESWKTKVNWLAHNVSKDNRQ
PI3Kδ, sequence (P27986 whole entry partner, canonical isoform): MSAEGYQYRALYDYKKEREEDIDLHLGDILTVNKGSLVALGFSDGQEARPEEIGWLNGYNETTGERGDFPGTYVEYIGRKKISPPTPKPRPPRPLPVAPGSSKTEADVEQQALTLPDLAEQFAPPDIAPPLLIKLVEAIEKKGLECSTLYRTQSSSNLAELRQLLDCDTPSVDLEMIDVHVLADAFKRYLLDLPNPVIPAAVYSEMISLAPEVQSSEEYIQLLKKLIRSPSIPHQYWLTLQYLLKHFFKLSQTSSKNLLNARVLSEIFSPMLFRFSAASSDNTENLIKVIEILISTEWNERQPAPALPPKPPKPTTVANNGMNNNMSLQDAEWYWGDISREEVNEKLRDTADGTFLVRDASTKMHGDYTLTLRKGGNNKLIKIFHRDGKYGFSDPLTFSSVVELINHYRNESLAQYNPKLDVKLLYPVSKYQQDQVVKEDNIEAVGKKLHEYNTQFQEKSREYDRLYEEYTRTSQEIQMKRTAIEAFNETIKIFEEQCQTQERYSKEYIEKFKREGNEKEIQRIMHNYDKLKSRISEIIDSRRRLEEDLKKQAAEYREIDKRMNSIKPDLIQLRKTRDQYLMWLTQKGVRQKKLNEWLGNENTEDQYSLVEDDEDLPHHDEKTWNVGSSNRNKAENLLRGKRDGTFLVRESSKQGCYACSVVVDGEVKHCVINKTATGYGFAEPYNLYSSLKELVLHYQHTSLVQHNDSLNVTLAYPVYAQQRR

Molecule `CC[C@H](Nc1ncnc2[nH]cnc12)c1oc2ccccc2c(=O)c1-c1cccc(F)c1` [Compound A1, (S)-2-(1-(9H-purin-6-ylamino)propyl)-3-(3-fluorophenyl)-4H-chromen-4-one] has an IC50 (PI3K beta) of 2070 nM, an IC50 ([1]; read-out: IC50, IFNγ) of 9.54 nM and an IC50 ([1]; read-out: IC50, IL2) of 20.6 nM. For the same molecule, the IC50 ([1]; read-out: IC50, TNFα) was 24 nM, the “percent inhibition of plasma TNFα” value (TNF-α; 1 mg/kg po) was 5% and the “percent inhibition of plasma TNFα” value (TNF-α; 3 mg/kg po) was 15%. The “percent inhibition of plasma TNFα” value (TNF-α; 10 mg/kg po) was 40%, the IC50 (PI3Kδ) was 23.8 nM and the IC50 (Pi3K γ) was under 40 nM.

Reference: patent publication US11466006B2, “Dual selective PI3 delta and gamma kinase inhibitors” (Rhizen Pharmaceuticals SA, priority 2013, dated 2022)
